Data on 7 molecules can be found in US7759526B2 (priority 2000, dated 2010).

Entries after “also recorded” stand apart in the source; their conditions may differ.

For assay [1], the system named is human HL-60 promyelecytic leukemia cells. The assay can be described thus: Apoptosis of HL-60 cells, Hoechst 33258 stain. Format: cell-based. The note with it: for % apoptosis / programmed cell death (apoptosis): HL-60; for % apoptosis: 24 h; for programmed cell death (apoptosis): dose dependent 0.1 μg/ml to 8 μg/ml. The source says:
The method used, namely determination by the fluorescent Hoechst 33258 stain, is described by T. R. Chen (Cell Res. 104, 255-262, 1977). A Table of results is appended in following Table D.

In assay [2] the test system is uptake of endocannabinoids into neuronal cells. Kind of assay: Uptake of endocannabinoids into neuronal cells. The class given is cell-based. The note with it: preliminary data.
The target of assay [3] is CB2 (Homo sapiens, UniProt P34972). The note with it: cited from earlier work.
Sequence of CB2 (P34972 whole entry, species assumed): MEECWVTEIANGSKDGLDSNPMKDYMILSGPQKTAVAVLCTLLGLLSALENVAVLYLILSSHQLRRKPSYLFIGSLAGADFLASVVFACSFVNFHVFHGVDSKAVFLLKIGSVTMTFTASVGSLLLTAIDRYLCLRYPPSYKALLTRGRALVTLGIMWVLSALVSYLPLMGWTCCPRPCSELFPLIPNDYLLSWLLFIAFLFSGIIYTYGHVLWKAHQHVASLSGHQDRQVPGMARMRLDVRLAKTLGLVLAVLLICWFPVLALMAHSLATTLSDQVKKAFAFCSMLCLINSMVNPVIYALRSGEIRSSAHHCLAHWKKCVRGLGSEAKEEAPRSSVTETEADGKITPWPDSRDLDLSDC
The subject of assay [4] is tetradecanoylphorbolacetable (TPA) induced erythema of mouse ear. The note with it: application of a 100 μg/ml solution; Formukong et al. 1988; cited from earlier work.
In assay [5] the test system is phenylbenzoquinone writhing. The note with it: Formukong et al. 1988; cited from earlier work.
In assay [6] the test system is serum TNFα. Kind of assay: Serum TNFα in mice after ip injection of LPS. The class given is in vivo. The method, then: This anti TNFα effect is also seen in vivo. High levels of TNFα appear in serum of mice after ip injection of 5 mg/kg/mouse lipopolysaccharide (LPS). […] At the lower dose of 0.5 mg/kg 80% suppression of TNFα level was observed. […] Thus 7-hydroxy-CBD (2a) in doses of 10 μg/kg i.p. suppressed serum TNFα in mice (30%).

Assay [7] relates to arachidonic acid-induced swelling of the ear. Kind of assay: Arachidonic acid-induced ear inflammation in the mouse. The class given is in vivo. The method, then: Mice (female Sabra) were treated with […] A′ A (in 5 μl EtOH) dispersed on the inner surface of one of the ears. The other ear was treated with 5 μl of EtOH. Ear swelling was assessed by measuring ear thickness with a dial thickness gauge (Mitutoyo, Japan) just before treatment and 30 min after A; A application. The drugs (40 mg/kg for the cannabinoids and 20 mg/kg for indomethacin) were injected i.p. 60 min before the A′ A treatment. *** indicates p<0.001.
The effect of various doses of CBD-7-oic acid (3a) (Example 28), and of CBD-DMH-7-oic acid (3b) (Example 28) and of indomethacin (20 mg/kg) after arachidonic acid-induced swelling of the ear are shown in FIG. 2. The effects were measured over 75 min after the administration of arachidonic acid.
(§1) Female Sabra mice (2 months old, Harlan-Sprague Dawley, Jerusalem) were used for a series of tests and for the assays for inflammation and peripheral pain. Groups of 5 mice were used in each experiment. Compounds 2a, 2b, 3a and 3b were dissolved in vehicle (ethanol:emulphor:saline=1:1:18) and injected intraperitoneally (i.p.) in volumes of 0.1 ml/10 g in mice as previously described (Hanus et al., 1999).
Ear inflammation was measured by assessing ear tissue swelling after topical application of arachidonic acid. […] The opposite ear served as control (5 μl ethanol). Ear thickness was determined (in 0.01 mm units) every 15 min for 90 min starting immediately after arachidonic acid application using a dial thickness gauge (Mitutoyo, Japan).

Assay [8] can be described thus: Antianxiety and anticonvulsive effects (preliminary data).
Assay [9] deals with formalin-induced paw licking. The assay can be described thus: Formalin test for peripheral pain. The class given is in vivo, mouse. The note with it: mice; 20 mg/kg; 5 min recorded 30 min after formalin (3.2%). Here is the method: Thus mice injected with formalin (3.2% dissolved in saline) licked their paws 8±2 times over 5 min, recorded 30 min after the formalin administration.
as §1
Pain mediated by the peripheral nervous system, was tested in the ‘formalin test’ for cutaneous (peripheral) pain (Tjolson et al., 1992; Calignano et al., 1998; Jaggar et al, 1998). The compound tested (or vehicle) was injected i.p. Formalin (3.2% dissolved in saline) was injected s.c. in the plantar surface of the hind paw of a mouse (in 20 μl volumes) 90 min after the drug. Immediately after formalin administration nociception was assessed (every 5 min for 1 hr) by the number of times the animal licks for formalin-injected paw.

Assay [10] has as its system release of reactive oxygen intermediates by monocytic RAW 264.7 cells. Kind of assay: Zymosan-induced release of reactive oxygen intermediates, chemiluminescence. The class given is cell-based. The source says:
Table of results are attached in following Table C.
(§2) The experimental methods used have been described in Gallily et al. (Eur. J. Pharmacol. 406, R5-R7, 2000), Avron and Gallily (J. Leukocyte Biol. 57, 264-268, 1995) and Gallily et al. (J. Pharmacol. Exp. Ther. 283, 918-924, 1997).

The test system of assay [11] is TNFα production by RAW 264.7 mouse monocytic cell line. The assay can be described thus: TNFα production by RAW 264.7 mouse monocytic cell line. More on the design: TNFα Titer S50: unit not given beside the values. Format: cell-based. The method, then: (§3) The inhibition is dose dependent (10 μg-0.001 μg/ml). Tables of results are attached in following Tables A and B.
as §2

In assay [12] the test system is TNFα production by Thioglycollate-elicited macrophages (TGMMΦ). Kind of assay: TNFα production by thioglycollate-elicited macrophages. The class given is cell-based, murine. The note with it: TGMΦ; for % inhibition of TNFα titer: 24 hrs. The method, then: as §3, §2
In assay [13] the target is T1, CB1 (Rattus norvegicus, UniProt P20272).
T1 construct: synaptosomal membranes prepared from rat brains; from tissue; host or cells: rat brain synaptosomal membranes
T1 sequence (P20272 whole entry): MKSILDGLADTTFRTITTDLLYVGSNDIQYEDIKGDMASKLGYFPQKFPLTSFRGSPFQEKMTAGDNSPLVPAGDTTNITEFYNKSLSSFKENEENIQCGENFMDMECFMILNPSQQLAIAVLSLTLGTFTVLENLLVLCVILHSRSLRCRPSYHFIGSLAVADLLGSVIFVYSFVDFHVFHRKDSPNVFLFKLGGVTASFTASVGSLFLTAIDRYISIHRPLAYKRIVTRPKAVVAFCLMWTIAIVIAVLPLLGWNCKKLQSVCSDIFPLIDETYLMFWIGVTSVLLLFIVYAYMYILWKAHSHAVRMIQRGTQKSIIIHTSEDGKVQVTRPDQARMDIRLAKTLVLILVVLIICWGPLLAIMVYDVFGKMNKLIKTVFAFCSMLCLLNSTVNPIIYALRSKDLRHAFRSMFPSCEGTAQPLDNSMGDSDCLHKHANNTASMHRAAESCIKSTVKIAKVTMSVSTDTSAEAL
The note with it: previously described probe; cited from earlier work.

Where [14] appears, read: cannabinoid 40 mg/kg i.p., compared with indomethacin 20 mg/kg i.p.
Setting [15] is: cannabinoid 5 mg/kg, compared with indomethacin 20 mg/kg.
The mark [16] stands for this setting: cannabinoid 80 mg/kg, compared with indomethacin 20 mg/kg.

In the case of `C=C(C)[C@@H]1CCC(C)=C[C@H]1c1c(O)cc(CCCCC)cc1O` [CBD, Cannabidiol], the “% apoptosis” value in [1] (1 μg/ml, no irradiation) was found to be 19%; in assay [1] (1 μg/ml, γ-irradiation 800 rad) it was 28%; in assay [1] (4 μg/ml, no irradiation) it was 33%; in assay [1] (4 μg/ml, γ-irradiation 800 rad), 45%; in assay [1] (8 μg/ml, no irradiation) it was 48%; in [1] (8 μg/ml, γ-irradiation 800 rad) it was 85%. The “programmed cell death (apoptosis)” value in [1] is reported as “high rate of programmed cell death”. The “apoptosis, synergism with γ ray irradiation” value in assay [1] (HL-60 irradiated by γ ray (800 rad) and treated with cannabinoid) is “up to 85%”. Further, the “uptake of endocannabinoids into neuronal cells” value (shortened to “uptake”) in assay [2] was “prevent the uptake of endocannabinoids into neuronal cells”. In addition, the “binding to cannabinoid receptor CB2” value in assay [3] was “does not bind”. In addition, the “inhibition of the inflammation response” value in assay [4] is on record as 92%. Besides, the “analgesic potency compared with aspirin” value in assay [5] is “much more potent than aspirin”.

`C=C(C)[C@@H]1CCC(C)=C[C@H]1c1c(O)cc(C(C)(C)CCCCCC)cc1O` [Compound 1b, CBD-DMH, reference compound]: the “uptake” value in [2] is listed as “prevent the uptake of endocannabinoids into neuronal cells”.

Take `C=C(C)[C@@H]1CCC(CO)=C[C@H]1c1c(O)cc(CCCCC)cc1O` [Compound 2a, 7-Hydroxy CBD]: the “suppression of serum TNFα” value in assay [6] (10 μg/kg i.p.) is reported as 30%. In assay [7] (setting [14]), the “antiinflammatory effect on arachidonic acid-induced ear swelling” value (shortened to “antiinflammatory effect”) is reported as “less active than the potent antiinflammatory drug indomethacin”. Also, in assay [2], the “uptake” value is on record as “prevent the uptake of endocannabinoids into neuronal cells”. Moreover, the “antianxiety and anticonvulsive effects” value in [8] was “have antianxiety and anticonvulsive effects”. For the same molecule, in assay [9], the “paw licking, late phase of formalin-induced pain behavior” value (“paw licking, late phase” for short) was “fully blocked the licking”.

Consider `C=C(C)[C@@H]1CCC(CO)=C[C@H]1c1c(O)cc(C(C)(C)CCCCCC)cc1O` [Compound 2b, 7-Hydroxy CBD-DMH], for which, in assay [7] (setting [14]), the “antiinflammatory effect” value is on record as “less active than the potent antiinflammatory drug indomethacin”. The “uptake” value in assay [2] is recorded as “prevent the uptake of endocannabinoids into neuronal cells”. In [8], the “antianxiety and anticonvulsive effects” value is “have antianxiety and anticonvulsive effects”. In addition, in assay [9], the “paw licking, late phase” value is recorded as “fully blocked the licking”.

As to `C=C(C)[C@@H]1CCC(C(=O)O)=C[C@H]1c1c(O)cc(CCCCC)cc1O` [Compound 3a, 7-Nor-carboxy CBD], the “antiinflammatory effect” value is on record as “less active than 3b” in [7] (setting [15]), “essentially equivalent to that of indomethacin” in assay [7] (setting [14]) and “less effective than indomethacin” in [7] (setting [16]). Besides, the Cherniluminescense peak in assay [10] (Zymosan + 4 μg/ml) is given as 4139; in [10] (Zymosan + 10 μg/ml), 1041. In addition, the “Inhibition % of ROI release” value in assay [10] (Zymosan + 4 μg/ml) is listed as 31%; in [10] (Zymosan + 10 μg/ml), 83%. Further, in assay [8], the “antianxiety and anticonvulsive effects” value is “have antianxiety and anticonvulsive effects”. In addition, the “paw licking, late phase” value in [9] is reported as “fully blocked the licking”.

For the molecule `C=C(C)[C@@H]1CCC(C(=O)O)=C[C@H]1c1c(O)cc(C(C)(C)CCCCCC)cc1O` [Compound 3b, 7-Nor-carboxy CBD DMH], the “% inhibition of TNFα titer” value in assay [11] (LPS + 0.01 μg/ml) turned out to be 11%; in assay [11] (LPS + 0.1 μg/ml) it was 45%; in assay [11] (LPS + 1 μg/ml) it was 63%; in assay [11] (LPS + 4 μg/ml) it was 65%; in assay [11] (LPS + 10 μg/ml) it was 91%; in [12] (LPS + 0.01 μg/ml) it was 36%. For the same molecule, the “% inhibition of TNFα titer” value turned out to be 40% in assay [12] (LPS + 1 μg/ml), 51% in assay [12] (LPS + 5 μg/ml) and 81% in assay [12] (LPS + 10 μg/ml). The “TNFα Titer S50” value in [11] (LPS + 0.01 μg/ml) stood at 5818; in assay [11] (LPS + 0.1 μg/ml) it was 357.6; in assay [11] (LPS + 1 μg/ml), 2384; in assay [11] (LPS + 4 μg/ml), 2300; in assay [11] (LPS + 10 μg/ml), 615. Further, in assay [6] (0.5 mg/kg simultaneously with LPS), the “suppression of TNFα level in serum” value is given as 80%. Besides, in assay [6] (0.5 and 5 mg/kg simultaneously with LPS 5 mg/kg ip), the “suppression of serum TNFα level” value was “suppressed serum TNFα level”. In addition, the “% apoptosis” value came out at 15% in assay [1] (5 μg/ml, no irradiation); 25% in assay [1] (5 μg/ml, γ-irradiation 800 rad); 27% in assay [1] (10 μg/ml, no irradiation); 58% in [1] (10 μg/ml, γ-irradiation 800 rad). In addition, the “programmed cell death (apoptosis)” value in assay [1] is recorded as “high rate of programmed cell death”. Also, the “antiinflammatory effect” value in [7] (setting [15]) is listed as “fully suppressed the inflammation; also recorded: as potent as indomethacin”; in assay [7] (setting [14]), “essentially equivalent to that of indomethacin”; in assay [7] (setting [16]) it was “less effective than indomethacin”. Also, the figures for the Cherniluminescense peak in assay [10] (Zymosan + 4 μg/ml) and in assay [10] (Zymosan + 10 μg/ml) were 1524 and 432, respectively. Also, the “Inhibition % of ROI release” value is given as 83% in assay [10] (Zymosan + 4 μg/ml) and 95% in assay [10] (Zymosan + 10 μg/ml). Also, the “antianxiety and anticonvulsive effects” value in assay [8] is “have antianxiety and anticonvulsive effects”. In assay [9], the “paw licking, late phase” value is “fully blocked the licking”. The “TNFα Titer (S50) After 24 hrs.” value in [12] (LPS + 0.01 μg/ml) amounted to 535; in assay [12] (LPS + 1 μg/ml), 501; in assay [12] (LPS + 5 μg/ml), 406; in assay [12] (LPS + 10 μg/ml), 159.

For the molecule `CCCCCCC(C)(C)c1cc(O)c2c(c1)OC(C)(C)[C@@H]1CC[C@@H](CO)C[C@@H]21` [[^3H]HU-243], the Ki in assay [13] is 0.045 ± 0.007 nM.

Broadly, the Ki is a measure of affinity in units of concentration, obtained from inhibition or displacement.
